Results on three compounds are retold here after patent US7122555B2, “Pyrido [2,1-a] isoquinoline derivatives” (Hoffmann-la Roche Inc., priority 2003, dated 2006).

This experiment concerns the target human DPP-IV (Homo sapiens, UniProt P27487). Description: DPP-IV activity assay (fluorogenic or colorimetric substrate), IC50 determination.

human DPP-IV, sequence (P27487 31-766): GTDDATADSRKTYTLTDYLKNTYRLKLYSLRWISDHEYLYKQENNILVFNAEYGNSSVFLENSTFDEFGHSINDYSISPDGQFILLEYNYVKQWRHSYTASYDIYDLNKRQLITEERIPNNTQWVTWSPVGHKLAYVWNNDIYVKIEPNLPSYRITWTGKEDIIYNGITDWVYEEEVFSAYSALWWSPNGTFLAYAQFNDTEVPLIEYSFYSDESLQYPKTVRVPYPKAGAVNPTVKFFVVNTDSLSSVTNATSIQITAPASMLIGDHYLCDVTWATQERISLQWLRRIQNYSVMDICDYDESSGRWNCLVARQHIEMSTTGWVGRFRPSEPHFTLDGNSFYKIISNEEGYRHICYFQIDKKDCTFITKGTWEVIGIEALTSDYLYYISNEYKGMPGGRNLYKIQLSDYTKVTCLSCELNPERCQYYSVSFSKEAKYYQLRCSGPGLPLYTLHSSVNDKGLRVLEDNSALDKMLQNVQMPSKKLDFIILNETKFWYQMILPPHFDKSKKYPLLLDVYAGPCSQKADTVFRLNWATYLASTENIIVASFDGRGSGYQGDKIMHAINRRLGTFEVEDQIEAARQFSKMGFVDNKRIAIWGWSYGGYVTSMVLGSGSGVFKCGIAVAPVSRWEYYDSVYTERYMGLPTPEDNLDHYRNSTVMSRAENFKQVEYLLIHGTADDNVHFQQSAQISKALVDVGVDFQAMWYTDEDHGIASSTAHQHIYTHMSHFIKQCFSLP
Description: Activity of DPP-IV inhibitors are tested with natural human DPP-IV derived from a human plasma pool or with recombinat human DPP-IV. Human citrate plasma from different donors is pooled, filterted through a 0.2 micron membrane under sterile conditions and aliquots of 1 ml are shock frozen and stored at −120° C. until used. In the colorimetric DPP-IV assay 5 to 10 μl human plasma and in the fluorometric assay 1.0 μl of human plasma in a total assay volume of 100 μl is used as an enzyme source. […] In the calorimetric DPP-IV assay 20 ng rec.-h DPP-IV and in the fluorometric assay 2 ng rec-h DPP-IV in a total assay volume of 100 μl is used as an enzyme source.
Initial rate constants are calculated by best fit linear regression.
The absorption of pNA liberated from the colorimetric substrate is detected in a Packard SpectraCount at 405 nm continuosly every 2 minutes for 30 to 120 minutes. Initial rate constants are calculated by best fit linear regression.
DPP-IV activity assays are performed in 96 well plates at 37° C. in a total assay volume of 100 μl. The assay buffer consists of 50 mM Tris/HCl pH 7.8 containing 0.1 mg/ml BSA and 100 mM NaCl. Test compounds are solved in 100% DMSO, diluted to the desired concentration in 10% DMSO/H2O. The final DMSO concentration in the assay is 1% (v/v). At this concentration enzyme inactivation by DMSO is <5%. Compounds are with (10 minutes at 37° C.) and without preincubation with the enzyme. Enzyme reactions are started with substrate application followed by immediate mixing.
Kinetic parameters of the enzyme reaction are calculated at at least 5 different substrate concentrations and at least 5 different test compound concentrations.

The term IC50 denotes the point on the concentration scale where inhibition reaches its midpoint. Read a high IC50 as a need for much substance. In turn, `COc1cc2c(cc1OC)[C@@H]1C[C@H](N)[C@@H](C(=O)N3CCSC3)CN1CC2` (racemic) [Example 2, (RS,RS,RS)-(2-Amino-9,10-dimethoxy-1,3,4,6,7,11b-hexahydro-2H-pyrido[2,1-a]isoquinolin-3-yl)-thiazolidin-3-yl-methanone] yielded a concentration for half-maximal inhibition (IC50) of 0.041 µM. With `COc1cc2c(cc1OC)[C@@H]1C[C@H](N)[C@@H](N3CCC=CC3=O)CN1CC2` (racemic) [Example 12, (RS,RS,RS)-1-(2-Amino-9,10-dimethoxy-1,3,4,6,7,11b-hexahydro-2H-pyrido [2,1-a]isoquinolin-3-yl)-5,6-dihydro-1H-pyridin-2-one] the figure was 0.033 µM.

The compound `COc1cc2c(cc1OC)[C@@H]1C[C@H](N)[C@@H](N3CCCCS3(=O)=O)CN1CC2` [Example 16, (S,S,S)-3-(1,1-Dioxo-[1,2]thiazinan-2-yl)-9,10-dimethoxy-1,3,4,6,7,11b-hexahydro-2H-pyrido[2,1-a]isoquinolin-2-ylamine] registered a 50% inhibitory concentration (IC50) of 0.131 µM.
